According to BindingDB's records for doi:10.1016/j.bmcl.2006.05.053 (Institute For Molecular Studies, 2006):
pIC50: −log10 of the molar value.

Molecular target: Mu-type opioid receptor (Rattus norvegicus, UniProt P33535)
Test: Displacement of [3H]DAMGO from mu opioid receptor in rat brain homogenate

Sequence of Mu-type opioid receptor (P33535 whole entry): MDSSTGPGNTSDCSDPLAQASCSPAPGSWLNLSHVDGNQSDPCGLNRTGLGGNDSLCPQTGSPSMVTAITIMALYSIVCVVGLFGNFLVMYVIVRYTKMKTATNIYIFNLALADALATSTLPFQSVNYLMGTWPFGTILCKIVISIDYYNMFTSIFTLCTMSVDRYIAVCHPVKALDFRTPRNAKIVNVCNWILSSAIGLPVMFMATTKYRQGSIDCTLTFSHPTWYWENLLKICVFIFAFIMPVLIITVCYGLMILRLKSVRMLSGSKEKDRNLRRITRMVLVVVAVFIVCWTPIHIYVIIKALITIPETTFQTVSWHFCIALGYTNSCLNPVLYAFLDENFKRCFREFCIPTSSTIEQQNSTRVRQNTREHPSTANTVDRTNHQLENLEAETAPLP

CN[C@@H](Cc1ccc(O)cc1)CN(C)[C@H](CNCc1ccccc1)Cc1ccc(O)cc1 [4-[(2S)-3-{[(2S)-1-(benzylamino)-3-(4-hydroxyphenyl)propan-2-yl](methyl)amino}-2-(methylamino)propyl]phenol]
pIC50: 8.70
